This note sets out measurements from ChEMBL document CHEMBL1131095, “Derivation of a three-dimensional pharmacophore model of substance P antagonists bound to the neurokinin-1 receptor” (J Med Chem, 1998).

SMILES strings stand for the structures.

Experiment [1] addresses T1, Substance-P receptor (Homo sapiens, UniProt P25103). Kind of experiment: Binding affinity was measured against the Tachykinin receptor 1 in CHO-expressed hNK1 using [125I]SP.
Experiment [2] has as its target T1, Substance-P receptor. Kind of experiment: Binding affinity was measured against the Tachykinin receptor 1 in human IM-9 cells using [125I]Bolton-Hunter SP. Type of experiment: cell-based.
Experiment [3] concerns the target T1, Substance-P receptor. Description: Binding affinity was measured against the Tachykinin receptor 1 in human IM-9 cells using [3H]SP as ligand. Format: cell-based.

T1 sequence (P25103 whole entry): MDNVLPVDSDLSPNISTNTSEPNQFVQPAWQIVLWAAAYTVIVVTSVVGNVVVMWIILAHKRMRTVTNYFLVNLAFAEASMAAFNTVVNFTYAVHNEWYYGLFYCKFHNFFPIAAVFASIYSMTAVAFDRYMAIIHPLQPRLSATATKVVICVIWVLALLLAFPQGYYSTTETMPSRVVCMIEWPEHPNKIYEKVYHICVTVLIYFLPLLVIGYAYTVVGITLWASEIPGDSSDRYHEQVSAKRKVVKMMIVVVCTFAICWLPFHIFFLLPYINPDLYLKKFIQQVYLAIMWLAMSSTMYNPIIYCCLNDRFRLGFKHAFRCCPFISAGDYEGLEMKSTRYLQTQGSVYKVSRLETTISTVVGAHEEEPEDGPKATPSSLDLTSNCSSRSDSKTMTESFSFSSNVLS

In turn, `FC(F)(F)c1cc(CO[C@H]2CCCN(Cc3ccco3)[C@H]2c2ccccc2)cc(C(F)(F)F)c1` showed a half-inhibitory concentration (IC50) at Substance-P receptor [1] of 39.8 nM.

For `FC(F)(F)c1cc(CO[C@H]2CCCN(Cc3cnc[nH]3)[C@H]2c2ccccc2)cc(C(F)(F)F)c1`, the IC50 at Substance-P receptor [1] was 1 nM.

The compound `N[C@H](COCc1cccc(Cl)c1)C(c1ccccc1)c1ccccc1` had an IC50 on Substance-P receptor [1] of 75.9 nM.

In turn, `COc1ccccc1CN1CCN2CCC[C@H]1[C@@H]2c1ccccc1` showed an IC50 on Substance-P receptor [2] of 0.363 nM.

`FC(F)(F)c1cc(COCC2(c3ccccc3)CCCNC2)cc(C(F)(F)F)c1` (centres undefined) had an IC50 on Substance-P receptor [1] of 20 nM.

`O=C1O[C@@H](Cc2c[nH]c3ccccc23)C(=O)N1Cc1cc(C(F)(F)F)cc(C(F)(F)F)c1` had an IC50 on Substance-P receptor [1] of 25.7 nM.

For `CN(Cc1ccccc1)C(=O)[C@H](Cc1ccc2ccccc2c1)NC(=O)[C@@H]1CCCC[C@@H]1NC(=O)c1c[nH]c2ccccc12`, the IC50 at Substance-P receptor [3] is 12.6 nM.

For the compound `Cc1cc(C)cc(COC[C@@H](Nc2ccccc2)C(c2ccccc2)c2ccccc2)c1`, the IC50 at Substance-P receptor [1] is 81.3 nM.

Take `FC(F)(F)c1cc(CN[C@H]2C3CCN(CC3)[C@H]2C(c2ccccc2)c2ccccc2)cc(C(F)(F)F)c1`: on Substance-P receptor [1], the IC50 was 2 nM.

Consider `O=C1O[C@@H](Cc2c[nH]c3ccccc23)C(=O)N1Cc1cccc(C(F)(F)F)c1`, for which, on Substance-P receptor [1], the IC50 was 2690 nM.

At Substance-P receptor [1], `c1ccc(CO[C@H]2C3CCN(CC3)[C@H]2C(c2ccccc2)c2ccccc2)cc1` gave a half-maximal inhibitory concentration (IC50) of 75.9 nM.

On Substance-P receptor [1], `FC(F)(F)c1cc(CO[C@H]2CCCN(Cc3nnn[nH]3)[C@H]2c2ccccc2)cc(C(F)(F)F)c1` had an IC50 of 39.8 nM.

The compound `CN(Cc1ccccc1)C(=O)[C@H](Cc1ccc2ccccc2c1)NC(=O)C1(NC(=O)c2c[nH]c3ccccc23)CCCCC1` had an IC50 on Substance-P receptor [3] of 1.26 nM.

In turn, `COc1ccccc1CN[C@H]1C2CC3CCCC2CN3[C@H]1C(c1ccccc1)c1ccccc1` (some centres undefined) had an IC50 on Substance-P receptor [2] of 1.91 nM.

`CN(C(=O)Cc1ccccc1)[C@H](Cc1ccc2ccccc2c1)NC(=O)C1(NC(=O)c2c[nH]c3ccccc23)CCCCC1` showed an IC50 on Substance-P receptor [3] of 20 nM.

Regarding `c1ccc(CN[C@H]2C3C4CCCC3CN(C4)[C@H]2C(c2ccccc2)c2ccccc2)cc1`, the IC50 on Substance-P receptor [2] was 229 nM.

The compound `O=C(Cc1ccccc1)N[C@H](Cc1ccc2ccccc2c1)NC(=O)[C@@H]1CCCC[C@@H]1NC(=O)c1c[nH]c2ccccc12` gave an IC50 at Substance-P receptor [3] of 316 nM.

Consider `FC(F)(F)c1cc(COCC2(c3ccccc3)CCCCN2)cc(C(F)(F)F)c1` (centres undefined), for which the IC50 at Substance-P receptor [1] is 1 nM.

Regarding `COc1ccccc1[C@@H]1CC[C@@]2(CCCN[C@H]2c2ccccc2)NC1`, the IC50 on Substance-P receptor [2] is 2 nM.

For `COc1ccccc1[C@@H]1CC[C@@]2(CCCN[C@H]2c2ccccc2)N1`, the IC50 at Substance-P receptor [2] is 10000 nM.

Turning to `c1ccc(CN[C@H]2C3CC4CCCC(C3)N4[C@H]2C(c2ccccc2)c2ccccc2)cc1`, the IC50 on Substance-P receptor [2] is 170 nM.

In turn, `CN(Cc1ccccc1)C(=O)CN1CCC[C@H](OCc2cc(C(F)(F)F)cc(C(F)(F)F)c2)[C@@H]1c1ccccc1` had a half-maximal inhibitory concentration (IC50) on Substance-P receptor [1] of 0.398 nM.

In turn, `N[C@H](COCc1ccccc1)C(c1ccccc1)c1ccccc1` had an IC50 on Substance-P receptor [1] of 363 nM.

Turning to `COc1ccccc1CN1CN2CCC[C@H]1[C@@H]2c1ccccc1`, the IC50 on Substance-P receptor [2] was 0.617 nM.

Compound `CN(Cc1ccccc1)C(=O)[C@H](Cc1ccccc1)NC(=O)[C@@H]1CCCC[C@@H]1NC(=O)c1c[nH]c2ccccc12` showed a half-maximal inhibitory concentration (IC50) on Substance-P receptor [3] of 126 nM.

Turning to `c1ccc(CN[C@H]2C3CC4CCC(C3)N4[C@H]2C(c2ccccc2)c2ccccc2)cc1`, the IC50 on Substance-P receptor [2] was 67.6 nM.

`c1ccc(CN[C@H]2C3CCN(CC3)[C@H]2C(c2ccccc2)c2ccccc2)cc1`: the IC50 at Substance-P receptor [1] is 28.8 nM.

In turn, `COc1ccccc1CN[C@H]1C2CC3CCC(C2)N3[C@H]1C(c1ccccc1)c1ccccc1` gave an IC50 on Substance-P receptor [2] of 0.912 nM.

In the case of `CN(Cc1ccccc1)C[C@H](Cc1ccc2ccccc2c1)NC(=O)[C@@H]1CCCC[C@@H]1NC(=O)c1c[nH]c2ccccc12`, the IC50 at Substance-P receptor [3] was 1260 nM.

Compound `COc1ccccc1CN[C@H]1[C@@H]2CCC[C@@H]2N[C@H]1c1ccccc1` had an IC50 at Substance-P receptor [3] of 2.4 nM.

For the compound `COc1ccccc1CN[C@H]1C2CCN(CC2)[C@H]1Cc1ccccc1`, the IC50 on Substance-P receptor [1] was 234 nM.

With `FC(F)(F)c1cc(CO[C@H]2CCCN(Cc3ncc[nH]3)[C@H]2c2ccccc2)cc(C(F)(F)F)c1`, the IC50 at Substance-P receptor [1] is 0.501 nM.

For `FC(F)(F)c1cc(CO[C@H]2CCCN(Cc3nnco3)[C@H]2c2ccccc2)cc(C(F)(F)F)c1`, the IC50 at Substance-P receptor [1] was 1 nM.

At Substance-P receptor [1], `O=c1[nH]nc(CN2CCC[C@H](OCc3cc(C(F)(F)F)cc(C(F)(F)F)c3)[C@@H]2c2ccccc2)[nH]1` had an IC50 of 0.1 nM.

`FC(F)(F)c1cc(CO[C@H]2CCCN(Cc3nnc[nH]3)[C@H]2c2ccccc2)cc(C(F)(F)F)c1` gave an IC50 at Substance-P receptor [1] of 0.2 nM.

As to `Cc1cc(C)cc(CO[C@H]2C3CCN(CC3)[C@H]2C(c2ccccc2)c2ccccc2)c1` [L-706125], at Substance-P receptor [1], the IC50 was 295 nM.

Compound `CC(=O)N[C@@H](Cc1c[nH]c2ccccc12)C(=O)OCc1cc(C)cc(C)c1` [L-708568] gave an IC50 at Substance-P receptor [1] of 52.5 nM.

`FC(F)(F)c1cc(CO[C@H]2C3CCN(CC3)[C@H]2C(c2ccccc2)c2ccccc2)cc(C(F)(F)F)c1` [L-709210] gave an IC50 on Substance-P receptor [1] of 195 nM.

Compound `CC(=O)N[C@@H](Cc1csc2ccccc12)C(=O)OCc1cc(C(F)(F)F)cc(C(F)(F)F)c1` [L-709400] gave an IC50 at Substance-P receptor [1] of 15.1 nM.
